Experimental data taken from ChEMBL document CHEMBL3297705, “Discovery of 5,6,7,8-tetrahydropyrido[3,4-d]pyrimidine inhibitors of Erk2” (Bioorg Med Chem Lett, 2014).
Values belong to the compound of their own block, whether it stands above or below them.

How the values were obtained:
[1] = target: T1, Mitogen-activated protein kinase 1 (Homo sapiens, UniProt P28482)
Description: Inhibition of ERK2 in human HepG2 cells assessed as P90RSK phosphorylation at Ser380 after 1.5 hrs by fluorescence assay

[2] = target: T1, Mitogen-activated protein kinase 1; remark: listed apart in the source
Description: Inhibition of human recombinant N-terminal 6-His-tagged ERK2 expressed in Escherichia coli using S/T17 as substrate after 30 mins by spectrophotometry

[3] = Oral bioavailability in NCR nude mouse at 150 mg/kg; assay type: ADME, organism-based; settings: in vivo
[4] = Half life in NCR nude mouse at 150 mg/kg, po; assay type: ADME, organism-based; set-up: dose 150 mg/kg, route oral; settings: in vivo
[5] = Cmax in Sprague-Dawley rat at 5 mg/kg, po; assay type: ADME, organism-based; set-up: dose 5 mg/kg, route oral; settings: in vivo
Mus musculus [6] = test: In vivo inhibition of ERK2 in nude mouse xenografted with human HCT116 cells assessed as pRSK knockdown at 75 mg/kg, po qd after 1 hr relative to vehicle-treated control; assay type: functional; settings: HCT-116, 1 h
[7] = Oral bioavailability in cynomolgus monkey at 3 mg/kg; assay type: ADME, organism-based, Macaca fascicularis; settings: in vivo
Mus musculus [8] = test: In vivo inhibition of ERK2 in nude mouse xenografted with human HCT116 cells assessed as pRSK knockdown at 75 mg/kg, po qd after 8 hrs relative to vehicle-treated control; assay type: functional; settings: HCT-116, 8 h
Mus musculus [9] = test: Toxicity in nude mouse xenografted with human HCT116 cells assessed as body weight loss at 150 mg/kg, po bid relative to vehicle-treated control; assay type: organism-based, HCT-116; set-up: dose 150 mg/kg, route oral; settings: in vivo
[10] = AUC (0 to infinity) in Sprague-Dawley rat at 5 mg/kg, po; assay type: ADME, organism-based; set-up: time infinity, dose 5 mg/kg, route oral; settings: plasma
[11] = Cmax in NCR nude mouse at 150 mg/kg, po; assay type: ADME, organism-based; set-up: dose 150 mg/kg, route oral; settings: in vivo
[12] = AUC (0 to infinity) in NCR nude mouse at 30 mg/kg, po; assay type: ADME, organism-based; set-up: time infinity, dose 30 mg/kg, route oral; settings: plasma
[13] = Cmax in NCR nude mouse at 100 mg/kg, po; assay type: ADME, organism-based; set-up: dose 100 mg/kg, route oral; settings: in vivo
[14] = Half life in beagle dog at 2 mg/kg, po; assay type: ADME, organism-based, Canis lupus familiaris; set-up: dose 2 mg/kg, route oral; settings: in vivo
[15] = Clearance in CD-1 mouse at 0.5 mg/kg, iv; assay type: ADME, organism-based; set-up: dose 0.5 mg/kg, route intravenous; settings: in vivo
[16] = Clearance in Sprague-Dawley rat at 1 mg/kg, iv; assay type: ADME, organism-based; set-up: dose 1 mg/kg, route intravenous; settings: in vivo
[17] = Tmax in NCR nude mouse at 150 mg/kg, po; assay type: ADME, organism-based; set-up: dose 150 mg/kg, route oral; settings: in vivo
[18] = Tmax in NCR nude mouse at 100 mg/kg, po; assay type: ADME, organism-based; set-up: dose 100 mg/kg, route oral; settings: in vivo
[19] = Tmax in cynomolgus monkey at 3 mg/kg, po; assay type: ADME, organism-based, Macaca fascicularis; set-up: dose 3 mg/kg, route oral; settings: in vivo
[20] = Tmax in Sprague-Dawley rat at 5 mg/kg, po; assay type: ADME, organism-based; set-up: dose 5 mg/kg, route oral; settings: in vivo
[21] = Half life in NCR nude mouse at 100 mg/kg, po; assay type: ADME, organism-based; set-up: dose 100 mg/kg, route oral; settings: in vivo
[22] = Toxicity in po dosed nude mouse xenografted with human HCT116 cells administered bid; assay type: organism-based, HCT-116; settings: in vivo
[23] = Clearance in cynomolgus monkey at 1 mg/kg, iv; assay type: ADME, organism-based, Macaca fascicularis; set-up: dose 1 mg/kg, route intravenous; settings: in vivo
[24] = Tmax in NCR nude mouse at 30 mg/kg, po; assay type: ADME, organism-based; set-up: dose 30 mg/kg, route oral; settings: in vivo
Mus musculus [25] = test: In vivo inhibition of ERK2 in nude mouse xenografted with human HCT116 cells assessed as pRSK knockdown at 150 mg/kg, po qd after 8 hrs relative to vehicle-treated control; assay type: functional; settings: HCT-116, 8 h
[26] = Half life in cynomolgus monkey at 3 mg/kg, po; assay type: ADME, organism-based, Macaca fascicularis; set-up: dose 3 mg/kg, route oral; settings: in vivo
[27] = AUC (0 to infinity) in NCR nude mouse at 150 mg/kg, po; assay type: ADME, organism-based; set-up: time infinity, dose 150 mg/kg, route oral; settings: plasma
A-375 = test: Antiproliferative activity against human A375 cells expressing B-Raf V600E mutant after 72 hrs by Cell-Titre Blue assay; assay type: functional, cell-based; settings: A-375, 72 h
[28] = Cmax in beagle dog at 2 mg/kg, po; assay type: ADME, organism-based, Canis lupus familiaris; set-up: dose 2 mg/kg, route oral; settings: in vivo
[29] = AUC (0 to infinity) in NCR nude mouse at 100 mg/kg, po; assay type: ADME, organism-based; set-up: time infinity, dose 100 mg/kg, route oral; settings: plasma
[30] = Clearance in NCR nude mouse at 1 mg/kg, iv; assay type: ADME, organism-based; set-up: dose 1 mg/kg, route intravenous; settings: in vivo
[31] = Oral bioavailability in NCR nude mouse at 30 mg/kg; assay type: ADME, organism-based; settings: in vivo
[32] = Half life in NCR nude mouse at 30 mg/kg, po; assay type: ADME, organism-based; set-up: dose 30 mg/kg, route oral; settings: in vivo
[33] = AUC (0 to infinity) in beagle dog at 2 mg/kg, po; assay type: ADME, organism-based, Canis lupus familiaris; set-up: dose 2 mg/kg, route oral, time infinity; settings: plasma
[34] = Cmax in cynomolgus monkey at 3 mg/kg, po; assay type: ADME, organism-based, Macaca fascicularis; set-up: dose 3 mg/kg, route oral; settings: in vivo
[35] = Half life in Sprague-Dawley rat at 5 mg/kg, po; assay type: ADME, organism-based; set-up: dose 5 mg/kg, route oral; settings: in vivo
[36] = Oral bioavailability in Sprague-Dawley rat at 5 mg/kg; assay type: ADME, organism-based; settings: in vivo
[37] = Oral bioavailability in beagle dog at 2 mg/kg; assay type: ADME, organism-based, Canis lupus familiaris; settings: in vivo
[38] = AUC (0 to infinity) in cynomolgus monkey at 3 mg/kg, po; assay type: ADME, organism-based, Macaca fascicularis; set-up: dose 3 mg/kg, route oral, time infinity; settings: plasma
[39] = Clearance in beagle dog at 1 mg/kg, iv; assay type: ADME, organism-based, Canis lupus familiaris; set-up: dose 1 mg/kg, route intravenous; settings: in vivo
[40] = Cmax in NCR nude mouse at 30 mg/kg, po; assay type: ADME, organism-based; set-up: dose 30 mg/kg, route oral; settings: in vivo
[41] = Antiproliferative activity against human HCT116 cells expressing K-Ras […] mutant after 72 hrs by Cell-Titre Blue assay; assay type: functional, cell-based; settings: HCT-116, 72 h
[42] = Oral bioavailability in NCR nude mouse at 100 mg/kg; assay type: ADME, organism-based; settings: in vivo
[43] = Tmax in beagle dog at 2 mg/kg, po; assay type: ADME, organism-based, Canis lupus familiaris; set-up: dose 2 mg/kg, route oral; settings: in vivo
[44] = Oral bioavailability in CD-1 mouse at 2 mg/kg; assay type: ADME, organism-based; settings: in vivo
[45] = target: Cyclin-dependent kinase 2 (Homo sapiens, UniProt P24941)
Description: Inhibition of Cdk2 (unknown origin)

[46] = Plasma protein binding in human; assay type: ADME, cell-free; settings: read-out: PPB (converted)

T1 sequence (P28482 whole entry): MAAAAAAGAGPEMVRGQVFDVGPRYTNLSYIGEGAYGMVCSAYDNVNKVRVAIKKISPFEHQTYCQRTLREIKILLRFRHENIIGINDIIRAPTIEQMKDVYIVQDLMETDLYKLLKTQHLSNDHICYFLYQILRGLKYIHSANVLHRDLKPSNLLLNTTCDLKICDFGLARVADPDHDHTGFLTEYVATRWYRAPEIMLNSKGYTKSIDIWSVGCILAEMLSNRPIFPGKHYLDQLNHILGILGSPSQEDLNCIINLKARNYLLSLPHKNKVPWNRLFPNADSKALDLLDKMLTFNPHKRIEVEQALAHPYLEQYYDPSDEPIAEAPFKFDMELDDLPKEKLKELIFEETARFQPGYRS

IC50 [1]: 356 nM
IC50 [2]: 2 nM
SMILES: CC(C)Nc1ncc2c(n1)CN(C(=O)N[C@H](CN)c1ccc(F)c(Cl)c1)CC2

IC50 [1]: 445 nM
IC50 [2]: 7 nM
SMILES: Cc1cc(Nc2ncc3c(n2)CN(C(=O)N[C@H](CO)c2ccc(F)c(Cl)c2)CC3)ccn1

SMILES: O=C(N[C@H](CO)c1ccc(Cl)c(F)c1)N1CCc2cnc(NC3CCOCC3)nc2C1
bioavailability [3]: 64%
half-life [4]: 162 min
Cmax [5]: 90 nM
inhibition in vivo at 75 mg/kg (Mus musculus [6]): 75%
bioavailability [7]: 19%
inhibition in vivo at 75 mg/kg (Mus musculus [8]): 20%
Activity (Mus musculus [9]): Non-toxic
AUC(0-inf) [10]: 0.2 µM·h
Cmax [11]: 13900 nM
AUC(0-inf) [12]: 4.81 µM·h
Cmax [13]: 9820 nM
half-life [14]: 36 min
clearance [15]: 33 mL/min/kg
clearance [16]: 104 mL/min/kg
Tmax [17]: 15 min
Tmax [18]: 15 min
Tmax [19]: 79.8 min
Tmax [20]: 19.8 min
half-life [21]: 450 min
MTD [22]: 50 mg/kg
clearance [23]: 33 mL/min/kg
Tmax [24]: 30 min
inhibition in vivo at 150 mg/kg (Mus musculus [25]): 55%
half-life [26]: 312 min
AUC(0-inf) [27]: 26.7 µM·h
EC50 (A-375): 390 nM
Cmax [28]: 590 nM
AUC(0-inf) [29]: 30 µM·h
clearance [30]: 134 mL/min/kg
bioavailability [31]: 58%
half-life [32]: 144 min
AUC(0-inf) [33]: 0.61 µM·h
Cmax [34]: 160 nM
half-life [35]: 102 min
bioavailability [36]: 11%
bioavailability [37]: 26%
AUC(0-inf) [38]: 0.65 µM·h
clearance [39]: 32 mL/min/kg
Cmax [40]: 3120 nM
EC50 [41]: 740 nM
bioavailability [42]: 73%
Tmax [43]: 25.2 min
bioavailability [44]: 29%

IC50 [1]: 21 nM
IC50 [2]: 2 nM
IC50 [45]: 69 nM
SMILES: C[C@@H](NC(=O)N1CCc2cnc(NC3CCOCC3)nc2C1)c1ccc2cc[nH]c2c1

IC50 [1]: 3010 nM
IC50 [2]: 41 nM
SMILES: CC(C)(C)Nc1ncc2c(n1)CN(C(=O)N[C@H](CO)c1ccc(F)c(Cl)c1)CC2

IC50 [1]: 1860 nM
IC50 [2]: 89 nM
SMILES: CC(C)Nc1ncc2c(n1)CN(C(=O)NCc1cccc(Cl)c1)CC2

IC50 [1]: 348 nM
IC50 [2]: 3 nM
SMILES: O=C(N[C@H](CO)c1ccc(F)c(Cl)c1)N1CCc2cnc(Nc3ccc(F)cc3)nc2C1

IC50 [1]: 144 nM
IC50 [2]: 4 nM
SMILES: CNC[C@@H](NC(=O)N1CCc2cnc(NC(C)C)nc2C1)c1ccc(F)c(Cl)c1

IC50 [1]: 1630 nM
IC50 [2]: 81 nM
SMILES: CC(C)Nc1ncc2c(n1)CN(C(=O)NCc1ccc(Cl)c(F)c1)CC2

IC50 [1]: 513 nM
IC50 [2]: 10 nM
SMILES: CC(C)CNc1ncc2c(n1)CN(C(=O)N[C@H](CO)c1ccc(F)c(Cl)c1)CC2

IC50 [1]: 14 nM
fraction unbound [46]: 0.081
IC50 [2]: 2 nM
IC50 [45]: 71 nM
SMILES: CC[C@@H](NC(=O)N1CCc2cnc(N[C@@H](C)CO)nc2C1)c1ccc(OC)c(Cl)c1

IC50 [1]: 1220 nM
IC50 [2]: 66 nM
SMILES: CC(C)Nc1ncc2c(n1)CN(C(=O)NCc1ccc(F)c(Cl)c1)CC2

IC50 [1]: 2110 nM
IC50 [2]: 122 nM
SMILES: COCCOC[C@@H](NC(=O)N1CCc2cnc(NC(C)C)nc2C1)c1ccc(F)c(Cl)c1

IC50 [1]: 88 nM
IC50 [2]: 3 nM
SMILES: CC(C)Nc1ncc2c(n1)CN(C(=O)N[C@@H](c1ccc(F)c(Cl)c1)[C@@H](C)O)CC2

IC50 [1]: 330 nM
IC50 [2]: 4 nM
SMILES: O=C(N[C@H](CO)c1ccc(F)c(Cl)c1)N1CCc2cnc(NC3CCCC3)nc2C1

IC50 [1]: 753 nM
IC50 [2]: 20 nM
SMILES: CCNc1ncc2c(n1)CN(C(=O)N[C@H](CO)c1ccc(F)c(Cl)c1)CC2

IC50 [1]: 917 nM
IC50 [2]: 7 nM
SMILES: CC(C)Nc1ncc2c(n1)CN(C(=O)N[C@H](CNS(C)(=O)=O)c1ccc(F)c(Cl)c1)CC2

IC50 [1]: 110 nM
fraction unbound [46]: 0.013
IC50 [2]: 3 nM
IC50 [45]: 821 nM
SMILES: C[C@@H](CO)Nc1ncc2c(n1)CN(C(=O)N[C@H](C)c1ccc(C(F)(F)F)c(F)c1)CC2

IC50 [1]: 198 nM
IC50 [2]: 2 nM
SMILES: O=C(N[C@H](CO)c1ccc(F)c(Cl)c1)N1CCc2cnc(N[C@H]3CC[C@H](O)C3)nc2C1

IC50 [1]: 7 nM
IC50 [2]: 2 nM
IC50 [45]: 2 nM
SMILES: C[C@@H](NC(=O)N1CCc2cnc(N[C@H]3CCO[C@@H](CO)C3)nc2C1)c1ccc(Cl)c(Cl)c1

IC50 [1]: 4400 nM
IC50 [2]: 106 nM
SMILES: COc1ccc(CNC(=O)N2CCc3cnc(NC(C)C)nc3C2)cc1

IC50 [1]: 43 nM
fraction unbound [46]: 0.01
IC50 [2]: 1 nM
IC50 [45]: 23 nM
SMILES: C[C@@H](NC(=O)N1CCc2cnc(Nc3ccnn3C)nc2C1)c1ccc(Cl)c(Cl)c1

IC50 [1]: 6620 nM
IC50 [2]: 69 nM
SMILES: CC(C)Nc1ncc2c(n1)CN(C(=O)NCc1ccc(F)cc1)CC2
